Consider 6 molecules from patent US20210283261A1, “Compositions and Methods for Treating ALK-Mediated Cancer” (ICAHN SCHOOL OF MEDICINE AT MOUNT SINAI, priority 2017, published 2021).

The assay has as its target T1, ALK fusion protein (Homo sapiens, UniProt Q9UM73).
T1 construct: endogenous in cells; host or cells: NCI-H3122; the other entry of the earlier key: EML4 (Q9HC35, Echinoderm microtubule-associated protein-like 4)
The assay can be described thus: Western blot of ALK fusion protein levels in NCI-H3122 cells. Format: cell-based. The settings on record: NCI-H3122, NCI-H3122 cells, 500 nM, Western blot; read-out: ALK fusion protein degradation, NCI-H3122 (500 nM). Here is the method:
SU-DHL-1, NCI-H3122 and NCI-H2228 cells were cultured in RPMI-1640 medium supplemented with 10% fetal bovine serum, 50 μg/mL penicillin and streptomycin. Cells were cultured in a 37° C. incubator with 5% CO2.
Cells were washed with cold PBS once and lysed in 1× Laemmli loading buffer directly. Lysates were heated at 99° C. for […], and resolved on 4-15% precast SDS-PAGE (BIO-RAD) and transferred onto PVDF membrane. Membrane was blocked in 5% milk in Tris-buffered saline and Tween 20 (TBST) for 1 h at room temperature, followed by incubation with a primary antibody overnight at 4° C., and a horseradish peroxidase (HRP)-conjugated secondary antibody for 1 h at room temperature. The membrane was imaged by a ChemiDoc MP imaging system (BIO-RAD). Antibodies against GAPDH (abeam), Phospho-ALK (Tyr1507), ALK (Cell Signaling Technology), Tubulin (Santa Cruz) were purchased commercially. […]

T1 sequence (Q9UM73 with tags, fused parts or gaps): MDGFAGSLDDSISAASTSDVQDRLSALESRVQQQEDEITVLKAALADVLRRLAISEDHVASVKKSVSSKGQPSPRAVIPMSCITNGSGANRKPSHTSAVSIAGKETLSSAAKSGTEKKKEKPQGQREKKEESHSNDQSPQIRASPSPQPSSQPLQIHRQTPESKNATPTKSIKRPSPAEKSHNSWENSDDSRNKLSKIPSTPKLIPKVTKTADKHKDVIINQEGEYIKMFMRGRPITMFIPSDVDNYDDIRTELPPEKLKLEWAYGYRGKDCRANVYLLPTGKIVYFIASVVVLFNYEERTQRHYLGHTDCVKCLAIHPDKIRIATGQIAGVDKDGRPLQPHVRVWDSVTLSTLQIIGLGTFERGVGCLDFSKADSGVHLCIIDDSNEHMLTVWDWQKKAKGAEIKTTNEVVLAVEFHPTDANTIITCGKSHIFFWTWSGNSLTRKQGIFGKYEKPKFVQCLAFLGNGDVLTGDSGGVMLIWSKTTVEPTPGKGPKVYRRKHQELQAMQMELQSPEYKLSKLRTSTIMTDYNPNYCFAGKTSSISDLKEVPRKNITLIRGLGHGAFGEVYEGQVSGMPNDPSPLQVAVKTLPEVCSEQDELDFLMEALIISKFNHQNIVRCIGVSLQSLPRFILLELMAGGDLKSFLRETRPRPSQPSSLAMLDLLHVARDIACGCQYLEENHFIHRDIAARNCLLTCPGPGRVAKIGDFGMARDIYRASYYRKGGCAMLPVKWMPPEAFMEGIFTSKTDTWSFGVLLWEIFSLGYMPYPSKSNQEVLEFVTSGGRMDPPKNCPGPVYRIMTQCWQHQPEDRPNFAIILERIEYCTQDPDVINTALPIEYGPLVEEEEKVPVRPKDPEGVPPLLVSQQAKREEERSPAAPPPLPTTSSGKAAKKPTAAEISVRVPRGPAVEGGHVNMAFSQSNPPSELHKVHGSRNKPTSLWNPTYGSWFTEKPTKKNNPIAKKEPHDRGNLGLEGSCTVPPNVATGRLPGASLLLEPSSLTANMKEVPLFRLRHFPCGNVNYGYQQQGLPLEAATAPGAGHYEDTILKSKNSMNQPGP

Regarding `Cc1cc(Nc2ncc(Cl)c(Nc3ccccc3S(=O)(=O)C(C)C)n2)c(OC(C)C)cc1C1CCN(C(=O)CCCNc2cccc3c2C(=O)N(C2CCC(=O)NC2=O)C3=O)CC1` (stereo not drawn) [CZ47-03, 4-((4-(4-(4-((5-Chloro-4-((2-(isopropylsulfonyl)phenyl)amino)pyrimidin-2-yl)amino)-5-isopropoxy-2-methylphenyl)piperidin-1-yl)-4-oxobutyl)amino)-2-(2,6-dioxopiperidin-3-yl)isoindoline-1,3-dione], the Dmax at 0.5 µM is 20 to 80%.

Regarding `Cc1cc(Nc2ncc(Cl)c(Nc3ccccc3S(=O)(=O)C(C)C)n2)c(OC(C)C)cc1C1CCN(C(=O)CCCCCCCCCC(=O)N[C@H](C(=O)N2C[C@H](O)C[C@H]2C(=O)NCc2ccc(-c3scnc3C)cc2)C(C)(C)C)CC1` [CZ47-29, (2S,4R)-1-((S)-2-(ll-(4-(4-((5-Chloro-4-((2-(isopropylsulfonyl)phenyl)amino)pyrimidin-2-yl)amino)-5-isopropoxy-2-methylphenyl)piperidin-1-yl)-11-oxoundecanamido)-3,3-dimethylbutanoyl)-4-hydroxy-N-(4-(4-methylthiazol-5-yl)benzyl)pyrrolidine-2-carboxamide], the Dmax at 0.5 µM is less than 20%.

Consider `Cc1cc(Nc2ncc(Cl)c(Nc3ccccc3S(=O)(=O)C(C)C)n2)c(OC(C)C)cc1C1CCN(C(=O)CCOCCOCCOCCOCCOCCC(=O)N[C@H](C(=O)N2C[C@H](O)C[C@H]2C(=O)NCc2ccc(-c3scnc3C)cc2)C(C)(C)C)CC1` [CZ47-21, (2S,4R)-1-((S)-2-(tert-Butyl)-22-(4-(4-((5-chloro-4-((2-(isopropylsulfonyl)phenyl)amino)pyrimidin-2-yl)amino)-5-isopropoxy-2-methylphenyl)piperidin-1-yl)-4,22-dioxo-7,10,13,16,19-pentaoxa-3-azadocosanoyl)-4-hydroxy-N-(4-(4-methylthiazol-5-yl)benzyl)pyrrolidine-2-carboxamide], for which the Dmax at 0.5 µM is less than 20%.

Take `Cc1cc(Nc2ncc(Cl)c(Nc3ccccc3S(=O)(=O)C(C)C)n2)c(OC(C)C)cc1C1CCN(C(=O)CCOCCOCCOCCOCCNc2cccc3c2C(=O)N(C2CCC(=O)NC2=O)C3=O)CC1` (stereo not drawn) [CZ47-11, 4-((15-(4-(4-((5-Chloro-4-((2-(isopropylsulfonyl)phenyl)amino)pyrimidin-2-yl)amino)-5-isopropoxy-2-methylphenyl)piperidin-1-yl)-15-oxo-3,6,9,12-tetraoxapentadecyl)amino)-2-(2,6-dioxopiperidin-3-yl)isoindoline-1,3-dione]: the Dmax at 0.5 µM fell in the range of 20 to 80%.

Consider `Cc1cc(Nc2ncc(Cl)c(Nc3ccccc3S(=O)(=O)C(C)C)n2)c(OC(C)C)cc1C1CCN(C(=O)CCOCCOCCOCCNc2cccc3c2C(=O)N(C2CCC(=O)NC2=O)C3=O)CC1` (stereo not drawn) [CZ47-10, 4-((2-(2-(2-(3-(4-(4-((5-Chloro-4-((2-(isopropylsulfonyl)phenyl)amino)pyrimidin-2-yl)amino)-5-isopropoxy-2-methylphenyl)piperidin-1-yl)-3-oxopropoxy)ethoxy)ethoxy)ethyl)amino)-2-(2,6-dioxopiperidin-3-yl)isoindoline-1,3-dione], for which the Dmax at 0.5 µM is less than 20%.

`Cc1cc(Nc2ncc(Cl)c(Nc3ccccc3S(=O)(=O)C(C)C)n2)c(OC(C)C)cc1C1CCN(C(=O)CCCCNc2cccc3c2C(=O)N(C2CCC(=O)NC2=O)C3=O)CC1` (stereo not drawn) [CZ47-04, 4-((5-(4-(4-((5-Chloro-4-((2-(isopropylsulfonyl)phenyl)amino)pyrimidin-2-yl)amino)-5-isopropoxy-2-methylphenyl)piperidin-1-yl)-5-oxopentyl)amino)-2-(2,6-dioxopiperidin-3-yl)isoindoline-1,3-dione]: the Dmax at 0.5 µM fell in the range of 20 to 80%.
